The values below come from patent US12473273B2, “Quinoline compounds and compositions for inhibiting EZH2” (Novartis AG, priority 2020, dated 2025).

Experiment [1] concerns the target wild type PRC2 (wtPRC2) complex (Homo sapiens, UniProt Q15910). Briefly: EZH2 LC-MS Assay. It counts as biochemical. The note with it: 40 nM wtPRC2 complex, 30 uM SAM, 1.5 uM H3K27me1 and 3 uM H3K27me3 peptides; SAH production. The procedure: Representative compounds of the invention were serially and separately diluted 3-fold in DMSO to obtain twelve concentrations. Then the test compounds at each concentration (120 nL of each) were transferred by Mosquito into a 384-well Perkin Elmer ProxiPlate 384 plus plates. Solutions (6 μL) of 80 nM wild type PRC2 (wtPRC2) complex and 60 µM SAM in reaction buffer (20 mM Tris, pH 8.0, 0.1% BSA, 0.01% Triton, 0.5 mM DTT) were added to the wells that were then incubated with the test compound for 20 min. A 6 μL solution of 3 µM of the substrate peptide H3K27me1 (histone H3 [21-44]-K27me1-biotin) and 6 μM regulatory peptide H3K27me3 (histone H3 [21-44]-K27me3) in reaction buffer was added to initiate each reaction. The final components in the reaction solution include 40 nM wtPRC2 complex, 30 µM SAM, 1.5 µM H3K27me1 and 3 µM H3K27me3 peptides with varying concentration of the compounds. A positive control consisted of the enzyme at 40 nM, 30 μM SAM, 1.5 µM H3K27me1 and 3 µM H3K27me3 in the absence of the test compound, and a negative control consisted of 30 µM SAM, 1.5 µM H3K27me1 and 3 μM H3K27me3 only. Each reaction was incubated at room temperature for 120 min, then stopped by addition of 3 μL per of quench solution (2.5% TFA with 320 nM d4-SAH). The reaction mixture was centrifuged (Eppendorf centrifuge 5810, Rotor A-4-62) for 2 min at 2000 rpm and read on an API 4000 triple quadrupole mass spec with Turbulon Spray (Applied Biosystem) coupled with Prominence UFLC (Shimadzu). The levels of SAH production were normalized based on the values coming from the positive and negative controls to give percent enzyme activities. The data were fit to a dose response equation using the program Helios to get the […] values of the test compound.

Experiment [2] concerns H3K27 methylation in G401 cell. The experiment can be described thus: ELISA (H3K27 methylation) assay. To be noted: Homo sapiens, G-401, 48 h, cultured 48 h with compound, normalized using H3 signal. It is filed as cell-based. How it is done: ELISA (H3K27 methylation) assay
Representative compounds of the invention were serially and separately diluted 3-fold in DO to obtain a total of eight or twelve concentrations. Then the compounds were added to G401 cell cultured in 384-well plate at 1:500 dilution to obtain the highest concentration of 20 μM. The cells were further cultured for 48 h before ELISA procedure.
Histone extraction: Cells, in 384-well plate, were washed with PBS (10 x PBS buffer (80 g NaCl (Sigma, S3014), 2 g KCl (Sigma, 60128), 14.4 g Na2HPO4 (Sigma, S5136), 2.4 g KH2PO4 (Sigma, P9791) to 1 L water, pH to 7.4) and lysed with the addition of lysis buffer (0.4N HCl; 45 μl per well). The plate was gently agitated at 4° C. for 30 min. The cell lysate was neutralized with neutralization buffer (0.5 M sodium phosphate dibasic, pH 12.5. 1 mM DTT; 36 µL per well). The plate was agitated to ensure the lysates were well mixed prior to the ELISA protocol.
ELISA protocol: Cell lysates were transferred to the wells of a 384-well plate and the final volume was adjusted to 50 μL per well with PBS. The plate was sealed, centrifuged at 2,000 rpm for 2 min and incubated at 4° C. for about 16 h. The plate was washed with TBST buffer (1 x TBS (10x TBS: 24.2 g Tris (Sigma, T6066), 80 g NaCl (Sigma, S3014) to 1 L of water and adjust pH to 7.6 with HCl) with 0.1% Tween-20). Blocking buffer (TBST, 5% BSA; 50 µL per well) was added and the plate was incubated for 1 h at rt. The blocking buffer was removed and primary antibody was added (30 μL per well). The following dilutions were performed with blocking buffer: for anti-H3K27me3 antibody (Cell Signaling Technology, #9733), dilution was 1:1000; for anti-H3K27me2 antibody (Cell Signaling Technology, #9288), dilution was 1:100; for anti-H3 antibody (Abcam, Cat #24834), dilution was 1:1000. The primary antibody was incubated in the plate at rt for 1 h. The wells were washed with TBST and incubated with secondary antibody for 1 h at rt. For secondary antibodies, the following dilutions were carried out with blocking buffer: anti-rabbit antibody (Jackson ImmunoResearch, #111-035-003), dilution was 1:2000; and anti-mouse antibody (Cell signaling technology, #7076), dilution was 1:1000.
After 1 h of incubation at rt, the wells were washed with TBST. ECL substrate (Pierce, #34080) was added at 30 μL per well and the plates were centrifuged at 2,000 rpm for 2 min. The signal was read using a PerkinElmer Envision Reader. The H3K27 methylation readouts were normalized using H3 signal and then percentage inhibition was calculated against the samples treated with DO. The data were fit to a dose response curve using the program Helios to get the IC50 values of the test compound.
(ELISA stands for enzyme-linked immunosorbent assay.)

wild type PRC2 (wtPRC2) complex, sequence (Q15910 whole entry): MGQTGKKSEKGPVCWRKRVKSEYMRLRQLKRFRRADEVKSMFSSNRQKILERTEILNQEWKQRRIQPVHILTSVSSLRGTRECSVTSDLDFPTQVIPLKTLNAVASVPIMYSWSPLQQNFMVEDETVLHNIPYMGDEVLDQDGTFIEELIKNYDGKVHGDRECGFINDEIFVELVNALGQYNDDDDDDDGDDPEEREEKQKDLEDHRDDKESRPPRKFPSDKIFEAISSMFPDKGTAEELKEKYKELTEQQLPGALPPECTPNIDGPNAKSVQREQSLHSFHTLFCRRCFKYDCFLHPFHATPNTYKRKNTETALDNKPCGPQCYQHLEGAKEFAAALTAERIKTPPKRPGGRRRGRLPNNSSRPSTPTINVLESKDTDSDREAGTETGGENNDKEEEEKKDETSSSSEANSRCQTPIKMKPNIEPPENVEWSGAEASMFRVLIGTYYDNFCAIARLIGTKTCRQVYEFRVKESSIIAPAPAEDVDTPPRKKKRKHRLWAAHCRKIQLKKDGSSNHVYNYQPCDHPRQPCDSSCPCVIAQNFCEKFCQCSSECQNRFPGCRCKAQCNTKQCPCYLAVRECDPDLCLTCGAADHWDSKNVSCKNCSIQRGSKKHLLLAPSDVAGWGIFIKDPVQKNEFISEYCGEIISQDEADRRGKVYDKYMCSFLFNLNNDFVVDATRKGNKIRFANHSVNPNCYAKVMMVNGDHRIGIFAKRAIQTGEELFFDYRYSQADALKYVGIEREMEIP
wild type PRC2 (wtPRC2) complex, sequence (O75530 whole entry partner): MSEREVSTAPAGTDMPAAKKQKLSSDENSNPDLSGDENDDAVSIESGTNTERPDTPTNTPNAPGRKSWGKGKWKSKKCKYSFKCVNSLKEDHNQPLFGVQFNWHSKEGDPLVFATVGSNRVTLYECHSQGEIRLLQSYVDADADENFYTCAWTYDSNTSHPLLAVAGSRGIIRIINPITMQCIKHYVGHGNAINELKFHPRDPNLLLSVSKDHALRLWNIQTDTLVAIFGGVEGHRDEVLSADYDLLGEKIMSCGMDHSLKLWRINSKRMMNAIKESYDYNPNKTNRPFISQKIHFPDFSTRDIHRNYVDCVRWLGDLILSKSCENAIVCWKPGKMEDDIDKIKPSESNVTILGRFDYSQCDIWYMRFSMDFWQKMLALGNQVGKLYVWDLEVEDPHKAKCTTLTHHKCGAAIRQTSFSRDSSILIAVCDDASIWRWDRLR
wild type PRC2 (wtPRC2) complex, sequence (Q15022 whole entry partner): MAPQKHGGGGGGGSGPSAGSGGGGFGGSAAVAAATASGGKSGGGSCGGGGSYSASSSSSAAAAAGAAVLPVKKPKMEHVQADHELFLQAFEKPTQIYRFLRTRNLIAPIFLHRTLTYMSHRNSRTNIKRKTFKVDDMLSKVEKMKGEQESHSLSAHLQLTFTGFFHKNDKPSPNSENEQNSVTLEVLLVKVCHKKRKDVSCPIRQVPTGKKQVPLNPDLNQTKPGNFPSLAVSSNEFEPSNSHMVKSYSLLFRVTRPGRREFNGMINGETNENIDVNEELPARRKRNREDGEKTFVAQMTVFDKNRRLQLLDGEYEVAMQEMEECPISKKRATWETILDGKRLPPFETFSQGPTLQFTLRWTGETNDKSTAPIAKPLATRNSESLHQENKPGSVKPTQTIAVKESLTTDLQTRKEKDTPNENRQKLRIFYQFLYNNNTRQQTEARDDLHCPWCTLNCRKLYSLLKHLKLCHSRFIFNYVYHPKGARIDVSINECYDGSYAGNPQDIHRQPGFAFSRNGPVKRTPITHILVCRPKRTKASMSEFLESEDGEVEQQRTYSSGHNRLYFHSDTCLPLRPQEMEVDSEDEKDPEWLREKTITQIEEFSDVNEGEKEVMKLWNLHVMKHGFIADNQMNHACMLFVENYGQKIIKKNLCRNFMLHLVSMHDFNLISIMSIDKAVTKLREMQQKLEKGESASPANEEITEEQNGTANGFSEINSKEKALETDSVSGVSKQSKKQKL

As to `Cc1ccc2ccc(N[C@H]3CC[C@H](CNc4ncc(C(C)C(=O)NC5COC5)cn4)CC3)nc2c1Cl` (stereo partly shown) [Example 12, 2-(2-((((1r,4r)-4-((8-chloro-7-methylquinolin-2-yl)amino)cyclohexyl)methyl)amino)pyrimidin-5-yl)-N-(oxetan-3-yl)propanamide], the IC50 (as a rule, the point on the concentration scale where inhibition reaches its midpoint) in experiment [1] was < 50 nM; in experiment [2], < 10 nM.
With `Cc1ccc2ccc(N[C@H]3CC[C@H](CNc4ccc(CC(=O)NC5COC5)cn4)CC3)nc2c1Cl` [Example 15, 2-(6-((((1r,4r)-4-((8-chloro-7-methylquinolin-2-yl)amino)cyclohexyl)methyl)amino)pyridin-3-yl)-N-(oxetan-3-yl)acetamide], the results for the IC50 in experiment [1] and in experiment [2] were < 50 nM and < 10 nM, respectively.
